Results reported in paper PMC11522673 (Communications Biology, 2024).

How the values were obtained:
PglaDRR = experiment: LC-MS product formation, substrate-inhibition fit; format: biochemical, Papaver glaucum; settings: reduction; 500 μM NADPH; Bis-tris, optimized pH and temperature (Table S12)
PlasDRR(REPI) = experiment: LC-MS product formation, substrate-inhibition fit; format: biochemical, Papaver lasiothrix; settings: reduction; 500 μM NADPH; Bis-tris, optimized pH and temperature (Table S12)
PburDRR = experiment: LC-MS product formation, substrate-inhibition fit; format: biochemical, Papaver burseri; settings: reduction; 500 μM NADPH; Bis-tris, optimized pH and temperature (Table S12)
PsomCOR = molecular target: T1, PsomCOR (Papaver somniferum, UniProt Q9SQ68); experiment: LC-MS product formation, Michaelis-Menten fit; settings: reduction; 1 mM NADPH; Bis-tris, optimized pH and temperature (Table S12)
T1 sequence (Q9SQ68 1-321): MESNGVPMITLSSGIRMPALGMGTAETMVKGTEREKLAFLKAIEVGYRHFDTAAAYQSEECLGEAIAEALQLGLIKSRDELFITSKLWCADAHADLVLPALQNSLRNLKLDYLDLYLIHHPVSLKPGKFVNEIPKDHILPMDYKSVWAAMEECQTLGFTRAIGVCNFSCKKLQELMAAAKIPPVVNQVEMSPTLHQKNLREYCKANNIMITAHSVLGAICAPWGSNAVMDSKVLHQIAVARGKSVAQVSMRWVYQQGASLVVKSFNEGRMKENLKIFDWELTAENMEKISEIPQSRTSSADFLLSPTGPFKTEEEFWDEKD

PglaCOR = experiment: LC-MS product formation, Michaelis-Menten fit; format: biochemical, Papaver glaucum; settings: reduction; 1 mM NADPH; Bis-tris, optimized pH and temperature (Table S12)
PapoCOR1 = experiment: LC-MS product formation, Michaelis-Menten fit; format: biochemical, Papaver apokrinomenon; settings: reduction; 1 mM NADPH; Bis-tris, optimized pH and temperature (Table S12)
PtriCOR3 = experiment: LC-MS product formation, Michaelis-Menten fit; format: biochemical, Papaver triniifolium; settings: reduction; 1 mM NADPH; Bis-tris, optimized pH and temperature (Table S12)
[1] = substrate: COc1ccc(CC2=[N+](C)CCc3cc(OC)c(O)cc32)cc1O; experiment: LC-MS product formation, substrate-inhibition fit; format: biochemical, Papaver somniferum; settings: reduction; 500 μM NADPH; Bis-tris, optimized pH and temperature (Table S12)

COc1ccc(CC2=[N+](C)CCc3cc(OC)c(O)cc32)cc1O [1,2-dehydroreticuline]
Km (PglaDRR): 16.4 ± 2.3 µM
Km (PlasDRR(REPI)): 12.3 ± 2.2 µM
Km (PburDRR): 5.5 ± 1 µM

COc1ccc2c3c1O[C@H]1C(=O)C=C[C@H]4[C@@H](C2)N(C)CC[C@]314 [codeinone]
Km (PsomCOR): 17.4 ± 1.6 µM
Km (PglaCOR): 78.8 ± 5.6 µM
Km (PapoCOR1): 117 ± 17.8 µM
Km (PtriCOR3): 10 ± 0.9 µM

B1: PsomDRR(REPI) (Papaver somniferum) (protein)
chain: MESSGVPVITLGSGKVMPVLGMGTFEKVGKGSERERLAILKAIEVGYRYFDTAAAYETEEVLGEAIAEALQLGLVKSRDELFISSMLWCTDAHADRVLLALQNSLRNLKLEYVDLYMLPFPASLKPGKITMDIPEEDICRMDYRSVWAAMEECQNLGFTKSIGVSNFSCKKLQELMATANIPPAVNQVEMSPAFQQKKLREYCNANNILVSAISVLGSNGTPWGSNAVLGSEVLKKIAMAKGKSVAQVSMRWVYEQGASLVVKSFSEERLRENLNIFDWELTKEDHEKIGEIPQCRILSAYFLVSPNGPFKSQEELWDDEA
Km [1]: 7.3 ± 2.2 µM
kcat [1]: 5.36 ± 1.71 s⁻¹
kcat/Km [1]: 735000 M⁻¹ s⁻¹
